The text below walks through data of patent publication US6589452B2, “Photochemically controlled photonic crystal diffraction” (University of Pittsburgh, priority 2000, dated 2003).

Structures are written as SMILES.

Common to all, as to assay type: physicochemical
Data set [1] is described as follows: thermal relaxation in the dark (cis-trans azobenzene isomerization). The conditions noted are these: azobenzene derivative in solution; 24° C.; monoexponential. As to the method:
FIG. 3 is a graph showing the characteristic time for UV irradiation and thermal relaxation of the AZO-PCCA. The characteristic time for UV irradiation (trans-cis azobenzene isomerization), which was performed at 365 nm, 10 mW, is ˜50 seconds (curve 1 and 2). The response time of the PCCA diffraction shift could be reduced by increasing the actinic light power. In addition, the characteristic time for thermal relaxation (cis-trans azobenzene isomerization), which was performed by placing the AZO-PCCA in the dark, is ˜10 days (curve 3 and 4).
(§1) In addition, a shoulder arising from the nπ* transition is evident at long wavelength side of the ππ* peak. This peak, due to nπ* transition, at 434 nm becomes dominant when a photostationary state under UV irradiation is reached (mainly cis-azobenzene). The intensity of the nπ* peak increases as the intensity of the ππ* band decreases due to the conversion of trans isomer to cis under UV light (FIG. 1). This is a typical behavior of azobenzene-type molecules. The photochemical behavior of a water solution of the azobenzene derivative of the present invention was determined under UV irradiation (365 nm, 20 mW) and irradiation with visible light ([…], ˜50 mW). Under 488 nm irradiation, the trans-isomer is restored and the photostationary state under visible light is very close to the equilibrium state in dark. […]

A short description of data set [2]: photochemical behavior of a water solution of the azobenzene derivative under UV irradiation. The conditions noted are these: UV 365 nm, 20 mW, monoexponential fit.
From the text: as §1, with “dark. When the azobenzene derivative was exposed to 365 nm irradiation, kinetic data fitted well to monoexponential function with the characteristic time of ˜40 seconds. In addition, thermal relaxation in dark follows monoexponential function with characteristic time of about 10 days at 24° C. Furthermore, the photochemical behavior of the azobenzene derivative of the present invention when covalently attached to the functionalized PCCA of the present invention was close to that of the azobenzene derivative in solution.” for “dark.”

Data set [3] in a line: water solubility of the azobenzene derivative. The conditions noted are these: compared with non-derivatized azobenzene. The source says: In addition, it retains similar photochemical properties as non-derivatized azobenzene.
In a particular embodiment of the invention, an azobenzene derivative, which is modified in order to increase its water solubility, is attached to the reactive PCCA through the reaction of the epoxide groups inside the hydrogel with primary amino groups on the azobenzene derivative. See Example 3. Hereinafter, the functionalized PCCA having azobenzene attached thereto is referred to as “AZO-PCCA”. […] For example, spiropyran may be attached to the gel by directly copolymerizing the spiropyran with the acrylamide. The photosensitive components of the present invention may be synthesized by methods well-known in the art.

Regarding `NCc1ccc(N=Nc2ccc(OCC(O)CO)cc2)cc1` (stereo not drawn) [azobenzene derivative, 4-N-aminomethylbenzolazo-4-phenoxy glycerol ether], the “characteristic time of thermal relaxation in dark” value in data set [1] was “about 10 days”. Further, in data set [2], the “characteristic time, 365 nm irradiation (trans-cis)” value is ~40 s. Moreover, the water solubility result in data set [3] is on record as “improved water solubility”.
